Assay results as given in article PMC9687812, “Discovery of Trace Amine-Associated Receptor 1 (TAAR1) Agonist 2-(5-(4′-Chloro-[1,1′-biphenyl]-4-yl)-4H-1,2,4-triazol-3-yl)ethan-1-amine (LK00764) for the Treatment of Psychotic Disorders” (Biomolecules, 2022).

Key:
[1] = tested on: Wistar male rats; assay: Stress-induced hyperthermia (SIH) test; format: in vivo, rat; details: n = 8
Experimental: SIH test is commonly used to evaluate the potential anti-anxiety effect of drugs. Thermometry was performed rectally in rats with a BIOSEB thermometer. Eight Wistar male rats were injected i.p. with vehicle or LK00764, dissolved in 10% tween 80 saline solution. Latin square design was used for the experiment. The first measurement was performed directly before the injection and the second measurement was performed 15 min later. The difference between the first and the second temperature was calculated.
Another behavioral paradigm known to be affected by TAAR1 agonists is the stress-induced hyperthermia test, which is believed to be a sensitive approach to evaluate the anxiolytic action of compounds [10, 42, 39a]. Thus, compound 62 (LK00764) was evaluated in this test at doses of 3 and 5 mg/kg, i.p. (Figure 7). At both doses, this compound was effective in suppressing stress-induced hyperthermia in rats (p < 0.05 and p < 0.001 for 3 and 5 mg/kg, respectively; Dunn’s test).

[2] = biological target: T1, TAAR1 (Homo sapiens, UniProt Q96RJ0); assay: BRET-based cellular cAMP (EPAC biosensor) assay of TAAR1 agonism in transfected HEK-293 cells
T1 sequence (Q96RJ0 1-339): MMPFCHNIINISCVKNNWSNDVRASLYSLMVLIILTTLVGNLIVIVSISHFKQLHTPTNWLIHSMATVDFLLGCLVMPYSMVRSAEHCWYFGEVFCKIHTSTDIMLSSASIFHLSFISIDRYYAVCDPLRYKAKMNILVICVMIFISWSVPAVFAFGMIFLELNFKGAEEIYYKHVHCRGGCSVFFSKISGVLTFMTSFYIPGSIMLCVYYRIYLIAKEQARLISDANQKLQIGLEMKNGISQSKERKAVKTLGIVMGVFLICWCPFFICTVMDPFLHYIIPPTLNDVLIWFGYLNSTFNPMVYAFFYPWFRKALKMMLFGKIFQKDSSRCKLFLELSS
Experimental: The Bioluminescence Resonance Energy Transfer approach (BRET) has been used for functional activity experiments. HEK-293 cells were transiently transfected with cDNA for TAARs and cAMP BRET biosensor (EPAC) and then plated in a 96-well plate, as described [23]. All compounds were tested at the initial concentration of 10 µM. […] A natural agonist of TAAR1 β-phenylethylamine (β-PEA) was used as a positive control.

[3] = tested on: MK-801-treated Wistar rats; assay: MK-801-induced hyperactivity in rats (Actometer); format: in vivo, rat
Experimental: (§1) MK-801 (dizocilpine, (+)-5-methyl-10,11-dihydro-5H-dibenzo-[a,d]-cyclohepten-5,10-imine maleate; Sigma-Aldrich, St. Louis, MO, USA) was dissolved in saline. Compound 62 (LK00764) was dissolved in 10% Tween 80 saline solution. All solutions were made fresh shortly before injections. Drug doses were tested in a pseudo-random order derived from Latin square design with at least 72 h between consecutive tests. All drugs and vehicles were administered intraperitoneally (i.p.) in the volume of 1 mL/kg. Drug doses are reported as salts. Selection of the MK-801 dose (0.2 mg/kg) was based the previous experience with the compound [24]. All locomotor activity tests (duration—60 min) were performed 15 min after the administration of compounds.
We evaluated locomotor activity of rats in the Actometer apparatus. A detailed description of the apparatus has been presented before. […]
Glutamate NMDA receptor antagonist-induced hyperactivity in rodents is commonly used as a pharmacological animal model of schizophrenia in the screening of potential antipsychotics. […] Thus, we used MK-801 (0.2 mg/kg, i.p.) treatment to induce hyperactivity in rats and analyzed the effects of compound 62 (LK00764) at doses of 0.3, 1, 3, 5, and 10 mg/kg, i.p. on locomotor activity of MK-801-treated Wistar rats.

[4] = tested on: DAT-KO rats; assay: Spontaneous locomotor hyperactivity of dopamine transporter knockout (DAT-KO) rats; format: in vivo, rat
Experimental: as §1
We evaluated locomotor activity of rats in the Actometer apparatus. A detailed description of the apparatus has been presented before. Shortly, each box of the apparatus was equipped by photocell-based infrared sensors to assess horizontal and vertical activity. Wistar rats were tested in the apparatus following a one-week habituation period (baseline period). […]
Animals without DAT have a disrupted re-uptake of dopamine resulting in remarkably elevated extracellular dopamine levels and spontaneous locomotor hyperactivity. […] Thus, we next evaluated the effects of LK00764 (1–10 mg/kg, i.p.) on spontaneous locomotor hyperactivity of DAT-KO rats (n = 9).

[5] = tested on: intact Wistar rats; assay: Spontaneous locomotor activity of intact rats (Actometer); format: in vivo, rat; details: 0.3–10 mg/kg i.p., n = 9
Experimental: as §1
We evaluated locomotor activity of rats in the Actometer apparatus. A detailed description of the apparatus has been presented before. Shortly, each box of the apparatus was equipped by photocell-based infrared sensors to assess horizontal and vertical activity. Wistar rats were tested in the apparatus following a one-week habituation period (baseline period). During this period, the animals were placed in locomotor activity boxes for 60 min per day, 6 days a week to habituate them to the environment. […]
Next, we analyzed the locomotor effects of compound 62 (LK00764, 0.3–10 mg/kg, i.p.) on the additional group of intact rats (n = 9).

Cl.NCCc1nnc(-c2ccc(-c3ccc(Cl)cc3)cc2)[nH]1 [Compound 62, 2-(5-(4′-Chloro-(1,1′-biphenyl)-4-yl)-4H-1,2,4-triazol-3-yl)ethan-1-amine Hydrochloride]
suppression of stress-induced hyperthermia ([1]; 3 mg/kg i.p., p < 0.05 Dunn's test): effective | suppression of stress-induced hyperthermia ([1]; 5 mg/kg i.p., p < 0.001 Dunn's test): effective | EC50 [2]: 4 nM | potency relative to Ulotaront (times higher) [2]: more than 30 times | Emax ([2]; HEK293, read-out: Emax: maximum observed activation of TAAR1 relative to that observed for 1 μM of β-PEA): 101% | effect on MK-801-induced hyperactivity (horizontal and vertical activity) ([3]; 0.3, 1, 3, 5, 10 mg/kg i.p., MK-801 0.2 mg/kg i.p., Friedman test, horizontal p < 0.05, vertical p < 0.01, n = 7): dose-dependently mitigated | effect on horizontal and vertical locomotor activity vs vehicle in MK-801-treated rats ([3]; doses of 5 and 10 mg/kg i.p., Dunnett's test p < 0.05): significant | melting point: 247 to 249 °C | horizontal and vertical activity of DAT-KO rats ([4]; 1–10 mg/kg i.p., n = 9, Friedman p < 0.05): significant dose-dependent decrease | locomotor hyperactivity of DAT-KO rats vs vehicle ([4]; only the highest tested dose, 10 mg/kg i.p., Dunnett's test): significantly (p < 0.05) diminished | vertical activity of intact rats ([5]; Friedman p < 0.001): decreased | horizontal activity of intact rats ([5]; Friedman p = 0.60): did not affect
